Experimental data as given in ChEMBL document CHEMBL1151310, “Inhibition of cAMP-phosphodiesterase by biflavones of Ginkgo biloba in rat adipose tissue” (J Nat Prod, 1998).

Legend:
Type in all cases: tissue-based
Rattus norvegicus [1] = species: Rattus norvegicus; test: Inhibition of PDE in Sprague-Dawley rat epididymal adipose tissue assessed as [14C]adenosine recovery at 0.05 to 3 ug/ml by liquid scintillation counting
Rattus norvegicus [2] = species: Rattus norvegicus; test: Inhibition of PDE in Sprague-Dawley rat epididymal adipose tissue assessed as [14C]adenosine recovery at 100 uM by liquid scintillation counting
Rattus norvegicus [3] = species: Rattus norvegicus; test: Inhibition of PDE in Sprague-Dawley rat epididymal adipose tissue assessed as [14C]adenosine recovery at 1 mM by liquid scintillation counting
Rattus norvegicus [4] = species: Rattus norvegicus; test: Inhibition of PDE in Sprague-Dawley rat epididymal adipose tissue assessed as [14C]adenosine recovery at 200 uM by liquid scintillation counting
[5] = (§1) Inhibition of PDE in Sprague-Dawley rat epididymal adipose tissue assessed as [14C]adenosine recovery by liquid scintillation counting
Rattus norvegicus [6] = species: Rattus norvegicus; test: as §1; settings: dose or concentration not given here
Rattus norvegicus [7] = species: Rattus norvegicus; test: Inhibition of PDE in Sprague-Dawley rat epididymal adipose tissue assessed as [14C]adenosine recovery at 3.6 uM by liquid scintillation counting

Compound `COc1ccc(-c2cc(=O)c3c(O)cc(O)c(-c4cc(-c5cc(=O)c6c(O)cc(OC)cc6o5)ccc4OC)c3o2)cc1` has an inhibition (Rattus norvegicus [1]) of 10%.

Compound `COc1ccc(Cc2nccc3cc(OC)c(OC)cc23)cc1OC` has an inhibition (Rattus norvegicus [2]) of over 90%.

Compound `Cn1c(=O)c2[nH]cnc2n(C)c1=O` has an inhibition (Rattus norvegicus [3]) of over 90%.

With `O=c1c(O)c(-c2ccc(O)cc2)oc2cc(O)cc(O)c12` the inhibition (Rattus norvegicus [4]) was over 90%.

Work on `O=c1cc(-c2ccc(O)c(-c3c(O)cc(O)c4c(=O)cc(-c5ccc(O)cc5)oc34)c2)oc2cc(O)cc(O)c12` [AMENTOFLAVONE] yielded an IC50 [5] of 0.27 µM and an inhibition (Rattus norvegicus [6]) of 85%.

With `COc1ccc(-c2cc(=O)c3c(O)cc(O)cc3o2)cc1-c1c(O)cc(O)c2c(=O)cc(-c3ccc(O)cc3)oc12` [BILOBETIN] the IC50 [5] was 0.36 µM and the inhibition (Rattus norvegicus [6]) was 84%.

Work on `COc1cc(O)c2c(=O)cc(-c3ccc(O)c(-c4c(O)cc(O)c5c(=O)cc(-c6ccc(O)cc6)oc45)c3)oc2c1` [SEQUOIAFLAVONE] yielded an inhibition (Rattus norvegicus [7]) of 94% and an IC50 [5] of 1.01 µM.
